{
  "source": "patent US20220016142A1",
  "about": "“COMBINATION THERAPY FOR TREATMENT OF CANCER” (PLUS VITECH, S.L., priority 2018, published 2022)",
  "system": "B16F10 cells (melanoma)",
  "experiment": "B16F10 melanoma tumor growth in mice (Example 2b)",
  "assay_type": "in vivo, C57BL/6J mice",
  "conditions": "maropitant 30 mg/kg i.p. once a day, anti CTLA-4 5 mg/kg i.p. every other day, FIG. 5",
  "protocol": "One Lewis Pulmonar Carcinoma cell line: 3LL; and one melanoma cell line: B16F10 (ATCC cell bank; LGC Standards); were used in this study. Both cell lines were maintained in culture in Dulbecco's modified Eagle's medium (DMEM) (Gibco, Thermo Fisher Scientific) supplemented with 10% foetal bovine serum (FBS) (Gibco, Thermo Fisher Scientific), 2 mM L-glutamine (Sigma-Aldrich, Merk) and Peni-Strep (50 U/ml and […]; Gibco, Thermo Fisher Scientific) in a humidified incubator at 37° C. and 5% CO2.\nCerenia® (maropitant citrate injectable solution; Zoetis US) was injected intraperitoneally at a dose of 30 mg/kg, once a day. […]\n3LL cells (0.6×10^6 per mouse) or B16F10 cells (1×10^6 per mouse) were subcutaneously injected into the right flank of C57BL/6J mice (Charles River) with matrigel (Matrigel Membrane Matrix, Corning) at 50% v/v. Tumor growth was evaluated every 2/3 days. Animal vital parameters were monitored daily. […]\nIn order to evaluate the effect of Maropitant and anti CTLA-4 combination in vivo, B16F10 tumor-bearing mice were randomly assigned into four treatment groups as detailed in table 1 (n=6 mice per group) to receive either Maropitant 30 mg/kg, anti CTLA-4 5 mg/kg, the combination of both agents or the equivalent volume of vehicle. Tumor growth was recorded as detailed in Materials and Methods. […]",
  "data": [
    {"smiles": "COc1ccc(C(C)(C)C)cc1CN[C@H]1C2CCN(CC2)[C@H]1C(c1ccccc1)c1ccccc1.O=C(O)CC(O)(CC(=O)O)C(=O)O", "note": "[Maropitant, maropitant citrate]", "values": [
      {"measurement": "reduction in tumor growth compared to vehicle group", "setting": "after 9 days of treatment", "value": 28, "unit": "%"},
      {"measurement": "effect on growth of melanoma tumours (in words)", "setting": "9 days", "value": "inhibited the grown of melanoma tumours"}
    ]}
  ]
}
